{"source": "patent US20160257697A1", "about": "“THIOPHENE-SUBSTITUTED TETRACYCLIC COMPOUNDS AND METHODS OFUSE THEREOF FOR THE TREATMENT OF VIRAL DISEASES” (priority 2013, published 2016)", "assay_in_all_cases": "microbe, parasite or virus in culture", "type_in_all_cases": "cell-based, Hepatitis C virus (HCV)", "key": {"HCV replicon 1AQ30D": {"test_system": "HCV replicon 1AQ30D", "conditions": "Replicon Assay B"}, "HCV replicon 1B": {"test_system": "HCV replicon 1B", "conditions": "Replicon Assay B"}, "HCV replicon 2B": {"test_system": "HCV replicon 2B", "conditions": "Replicon Assay A", "how_it_was_run": "(§1)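 HCV RNA levels were calculated from Ct values (minus intercept, divided by slope) of a Neo primer/probe standard curve, with cyclophilin quantified the same way. Cells were seeded at 2000/well and incubated with compound for 3 days in 5% serum and 0.5% DMSO.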"}, "HCV replicon 1AY93H": {"test_system": "HCV replicon 1AY93H", "conditions": "Replicon Assay A", "how_it_was_run": "as §1"}, "HCV replicon 1A": {"test_system": "HCV replicon 1A", "conditions": "Replicon Assay A", "how_it_was_run": "as §1"}, "[1]": {"conditions": "Hepatitis C virus, read-out: 1A Q30D IC50 (nM), replicon 1AQ30D"}, "[2]": {"conditions": "read-out: 1A Y93H IC50, replicon 1AY93H"}, "[3]": {"conditions": "Hepatitis C virus, read-out: 2B IC50 (nM), replicon 2B"}, "[4]": {"conditions": "Hepatitis C virus, read-out: 1A Y93H IC50 (nM), replicon 1AY93H"}, "[5]": {"conditions": "read-out: 2B IC50, HCV replicon 2B"}, "[6]": {"conditions": "read-out: 1A Y93H IC50, HCV replicon 1A Y93H"}, "[7]": {"conditions": "Hepatitis C virus, read-out: 1A Q30D IC50, HCV replicon 1A Q30D"}, "[8]": {"conditions": "read-out: 1A Q30D IC50, replicon 1AQ30D"}}, "note": "Like-named read-outs stand apart in the source and are kept apart here."}
{"smiles": "COC(=O)N[C@H](C(=O)C1CCC[C@H]1c1ncc(-c2ccc3c(c2)cc2n3C(c3ccc(C(F)(F)F)s3)Oc3cc(-c4cnc([C@@H]5CCCN5C(=O)[C@@H](NC(=O)OC)C(C)C)[nH]4)cc(F)c3-2)[nH]1)C(C)C", "note": "(single isomer, unassigned) [Compound 89]", "values": [{"measurement": "IC50", "setting": "HCV replicon 1AQ30D; [1]", "value": 0.33, "unit": "nM"}, {"measurement": "IC50", "setting": "HCV replicon 1B; Hepatitis C virus, replicon 1B", "value": 0.0015, "unit": "nM"}, {"measurement": "IC50", "setting": "HCV replicon 2B; read-out: 2B IC50, replicon 2B", "value": 0.063, "unit": "nM"}, {"measurement": "IC50", "setting": "HCV replicon 1AY93H; [2]", "value": 0.033, "unit": "nM"}, {"measurement": "IC50", "setting": "HCV replicon 1A; Hepatitis C virus, replicon 1A", "value": 0.001, "unit": "nM"}]}
{"smiles": "CCc1ccc(C2Oc3cc(-c4cnc([C@@H]5CCCN5C(=O)[C@@H](NC(=O)OC)C(C)C)[nH]4)cc(F)c3-c3cc4cc(-c5cnc([C@@H]6CCCN6C(=O)[C@H](NC(=O)OC)C6C[C@@H](C)O[C@@H](C)C6)[nH]5)ccc4n32)s1", "note": "(stereo partly shown) [Compound 144]", "values": [{"measurement": "IC50", "setting": "HCV replicon 1AQ30D; [1]", "value": 0.057, "unit": "nM"}, {"measurement": "IC50", "setting": "HCV replicon 1B; Hepatitis C virus, replicon 1B", "value": 0.0021, "unit": "nM"}, {"measurement": "IC50", "setting": "HCV replicon 2B; [3]", "value": 0.022, "unit": "nM"}, {"measurement": "IC50", "setting": "HCV replicon 1AY93H; [4]", "value": 0.003, "unit": "nM"}, {"measurement": "IC50", "setting": "HCV replicon 1A; Hepatitis C virus, replicon 1A", "value": 0.003, "unit": "nM"}]}
{"smiles": "COC(=O)N[C@H](C(=O)N1CCC[C@H]1c1ncc(-c2cc(F)c3c(c2)OC(c2cc4c(s2)CCC4)n2c-3cc3cc(-c4cnc([C@@H]5C[C@H]6C[C@H]6N5C(=O)[C@@H](NC(=O)OC)C5C[C@@H](C)O[C@@H](C)C5)[nH]4)ccc32)[nH]1)C(C)C", "note": "(single isomer, unassigned) [Compound 551]", "values": [{"measurement": "IC50", "setting": "HCV replicon 1AQ30D; read-out: 1A Q30D IC50, HCV replicon 1A Q30D", "value": 0.172, "unit": "nM"}, {"measurement": "IC50", "setting": "HCV replicon 1B; HCV replicon 1B", "value": 0.00791, "unit": "nM"}, {"measurement": "IC50", "setting": "HCV replicon 2B; [5]", "value": 0.0847, "unit": "nM"}, {"measurement": "IC50", "setting": "HCV replicon 1AY93H; [6]", "value": 0.0167, "unit": "nM"}, {"measurement": "IC50", "setting": "HCV replicon 1A; HCV replicon 1A", "value": 0.00629, "unit": "nM"}]}
{"smiles": "COC(=O)NC(C(=O)N1CCC[C@H]1c1ncc(-c2ccc3c(c2)cc2n3C(c3cc4c(s3)CCC4)Oc3cc(-c4cnc([C@@H]5CCCN5C(=O)[C@@H](NC(=O)OC)C(C)C)[nH]4)cc(C)c3-2)[nH]1)C1CCOC(C)(C)C1", "note": "(single isomer, unassigned) [Compound 853]", "values": [{"measurement": "IC50", "setting": "HCV replicon 1AQ30D; [7]", "value": 0.705, "unit": "nM"}, {"measurement": "IC50", "setting": "HCV replicon 1B; HCV replicon 1B", "value": 0.0042, "unit": "nM"}, {"measurement": "IC50", "setting": "HCV replicon 2B; [5]", "value": 0.011, "unit": "nM"}, {"measurement": "IC50", "setting": "HCV replicon 1AY93H; [6]", "value": 0.085, "unit": "nM"}, {"measurement": "IC50", "setting": "HCV replicon 1A; HCV replicon 1A", "value": "> 0.0036", "unit": "nM"}]}
{"smiles": "COC(=O)N[C@H](C(=O)N1CCC[C@H]1c1ncc(-c2cc(F)c3c(c2)OC(c2ccc(C(C)(C)C)s2)n2c-3cc3cc(-c4cnc([C@@H]5CCCN5C(=O)[C@@H](NC(=O)OC)C(C)C)[nH]4)ccc32)[nH]1)C(C)C", "note": "(single isomer, unassigned) [Compound 63]", "values": [{"measurement": "IC50", "setting": "HCV replicon 1AQ30D; replicon 1AQ30D, read-out: 1A Q30D IC50", "value": 0.34, "unit": "nM"}, {"measurement": "IC50", "setting": "HCV replicon 1B; replicon 1B", "value": 0.0024, "unit": "nM"}, {"measurement": "IC50", "setting": "HCV replicon 2B; replicon 2B, read-out: 2B IC50", "value": 0.27, "unit": "nM"}, {"measurement": "IC50", "setting": "HCV replicon 1AY93H; replicon 1AY93H, read-out: 1A Y93H IC50", "value": 0.01, "unit": "nM"}, {"measurement": "IC50", "setting": "HCV replicon 1A; replicon 1A", "value": 0.0032, "unit": "nM"}]}
{"smiles": "COC(=O)N[C@H](C(=O)N1CCC[C@H]1c1nc(-c2cc(F)c3c(c2)OC(c2ccc(C4CC4)s2)n2c-3cc3cc(-c4cnc([C@@H]5CCCN5C(=O)[C@@H](NC(=O)OC)C5C[C@@H](C)O[C@@H](C)C5)[nH]4)ccc32)c[nH]1)C(C)C", "note": "(stereo partly shown) [Compound 190]", "values": [{"measurement": "IC50", "setting": "HCV replicon 1AQ30D; [1]", "value": 0.013, "unit": "nM"}, {"measurement": "IC50", "setting": "HCV replicon 1B; Hepatitis C virus, replicon 1B", "value": 0.0014, "unit": "nM"}, {"measurement": "IC50", "setting": "HCV replicon 2B; [3]", "value": 0.003, "unit": "nM"}, {"measurement": "IC50", "setting": "HCV replicon 1AY93H; [4]", "value": 0.002, "unit": "nM"}, {"measurement": "IC50", "setting": "HCV replicon 1A; Hepatitis C virus, replicon 1A", "value": 0.0011, "unit": "nM"}]}
{"smiles": "COC(=O)NC(C(=O)N1CCC[C@H]1c1ncc(-c2cc(F)c3c(c2)OC(c2ccc(C4CC4)s2)n2c-3cc3cc(-c4cnc([C@@H]5CCCN5C(=O)[C@@H](NC(=O)OC)C(C)C)[nH]4)ccc32)[nH]1)C1C[C@@H](C)O[C@@H](C)C1", "note": "(single isomer, unassigned) [Compound 186]", "values": [{"measurement": "IC50", "setting": "HCV replicon 1AQ30D; [1]", "value": 2.84, "unit": "nM"}, {"measurement": "IC50", "setting": "HCV replicon 1B; Hepatitis C virus, replicon 1B", "value": 0.0021, "unit": "nM"}, {"measurement": "IC50", "setting": "HCV replicon 2B; [3]", "value": 0.63, "unit": "nM"}, {"measurement": "IC50", "setting": "HCV replicon 1AY93H; [2]", "value": 0.53, "unit": "nM"}, {"measurement": "IC50", "setting": "HCV replicon 1A; replicon 1A", "value": 0.0019, "unit": "nM"}]}
{"smiles": "COC(=O)N[C@H](C(=O)N1CCC[C@H]1c1ncc(-c2cc(F)c3c(c2)OC(c2ccc(CCF)s2)n2c-3cc3cc(-c4cnc([C@@H]5CCCN5C(=O)[C@@H](NC(=O)OC)C(C)C)[nH]4)ccc32)[nH]1)C(C)C", "note": "(single isomer, unassigned) [Compound 44]", "values": [{"measurement": "IC50", "setting": "HCV replicon 1AQ30D; [1]", "value": 0.54, "unit": "nM"}, {"measurement": "IC50", "setting": "HCV replicon 1B; Hepatitis C virus, replicon 1B", "value": 0.0012, "unit": "nM"}, {"measurement": "IC50", "setting": "HCV replicon 2B; read-out: 2B IC50, replicon 2B", "value": 0.1, "unit": "nM"}, {"measurement": "IC50", "setting": "HCV replicon 1AY93H; [2]", "value": 0.012, "unit": "nM"}, {"measurement": "IC50", "setting": "HCV replicon 1A; replicon 1A", "value": 0.0015, "unit": "nM"}]}
{"smiles": "COC(=O)NC(C(=O)N1CCC[C@H]1c1ncc(-c2ccc3c(c2)cc2n3C(c3ccc(C4CC4)s3)Oc3cc(-c4cnc([C@@H]5CCCN5C(=O)[C@@H](NC(=O)OC)C(C)C)[nH]4)cc(F)c3-2)[nH]1)C1CCCCO1", "note": "(single isomer, unassigned) [Compound 342]", "values": [{"measurement": "IC50", "setting": "HCV replicon 1AQ30D; [8]", "value": 1.07, "unit": "nM"}, {"measurement": "IC50", "setting": "HCV replicon 1B; replicon 1B", "value": 0.0026, "unit": "nM"}, {"measurement": "IC50", "setting": "HCV replicon 2B; read-out: 2B IC50, replicon 2B", "value": 0.166, "unit": "nM"}, {"measurement": "IC50", "setting": "HCV replicon 1AY93H; [2]", "value": 0.069, "unit": "nM"}, {"measurement": "IC50", "setting": "HCV replicon 1A; replicon 1A", "value": 0.0016, "unit": "nM"}]}
{"smiles": "COC(=O)N[C@H](C(=O)N1CCC[C@H]1c1nc(-c2cc(F)c3c(c2)OC(c2ccc(C)s2)n2c-3cc3cc(-c4cnc([C@@H]5CCCN5C(=O)[C@@H](NC(=O)OC)C5CCOCC5)[nH]4)ccc32)c[nH]1)C(C)C", "note": "(stereo partly shown) [Compound 58]", "values": [{"measurement": "IC50", "setting": "HCV replicon 1AQ30D; [8]", "value": 0.041, "unit": "nM"}, {"measurement": "IC50", "setting": "HCV replicon 1B; Hepatitis C virus, replicon 1B", "value": 0.0034, "unit": "nM"}, {"measurement": "IC50", "setting": "HCV replicon 2B; [3]", "value": 0.011, "unit": "nM"}, {"measurement": "IC50", "setting": "HCV replicon 1AY93H; [4]", "value": 0.002, "unit": "nM"}, {"measurement": "IC50", "setting": "HCV replicon 1A; Hepatitis C virus, replicon 1A", "value": 0.0014, "unit": "nM"}]}
{"smiles": "COC(=O)N[C@H](C(=O)N1CCC[C@H]1c1ncc(-c2cc(F)c3c(c2)OC(c2ccc(CC(C)C)s2)n2c-3cc3cc(-c4cnc([C@@H]5CCCN5C(=O)[C@@H](NC(=O)OC)C(C)C)[nH]4)ccc32)[nH]1)C(C)C", "note": "(single isomer, unassigned) [Compound 520]", "values": [{"measurement": "IC50", "setting": "HCV replicon 1AQ30D; [7]", "value": 1.91, "unit": "nM"}, {"measurement": "IC50", "setting": "HCV replicon 1B; Hepatitis C virus, HCV replicon 1B", "value": 0.00924, "unit": "nM"}, {"measurement": "IC50", "setting": "HCV replicon 2B; [5]", "value": 0.593, "unit": "nM"}, {"measurement": "IC50", "setting": "HCV replicon 1AY93H; [6]", "value": 0.0828, "unit": "nM"}, {"measurement": "IC50", "setting": "HCV replicon 1A; HCV replicon 1A", "value": 0.00947, "unit": "nM"}]}
